Source: patent publication US20240216444A1, “DESIGNED BACTERIAL COMPOSITIONS” (Seres Therapeutics, Inc., priority 2015, published 2024)

Experiments:
[1] = test system: C. difficile carbon sources; experiment: Carbon source utilization, 87 carbon sources in three base media, OD600 and acid production (Example 3B); type: cell-based; parameters: key: “+” and “w” refer to “positive” and “weak” utilization of the carbon source, respectively; “+” and “w” refer to “positive” and “weak” utilization of the carbon source, respectively; conditions: for utilization of carbon source NAG: NAG (N-acetylglucosamine)
From the text: Three C. difficile strains and 12 non-C. difficile bacterial strains were profiled using a panel of carbon sources. As used herein, unless otherwise indicated, carbon sources includes all sources tested as growth substrates in the experiments herein. The three C. difficile strains were Clostridium difficile ATCC 9689, Clostridium difficile ATCC 43593, and Clostridium difficile ATCC 43255, all of which are available from the American Type Culture Collection (ATCC).
Growth of the strains was tested on 87 different carbon sources in a 96-well plate format. The panel contained 34 carbon sources reported to be utilized by C. difficile in the literature (Hafiz and Oakley. 1976 J Med Microbiol 9:129-36; Wilson and Perini. 1988 Infection and Immunity 56:2610-14; Bergey and Holt. Bergey's Manual of Determinative Bacteriology. Baltimore: Williams & Wilkins, 1994; Sebaihia et al. 2006 Nature Genetics 38:779-786) including amino acids, mono-, di-, tri- and polysaccharides, glucoside and sugar alcohols. Carbon sources were added at 0.5% into three different base media (Base medium 1 SSNC composition: beef extract 1 g/L, yeast extract 2 g/L, bacto soytone 6 g/L, NaCl 4 g/L, KH2PO4 5.44 g/L, MgSO4 2 mM, CaCl2 1 mM, MnCl2 0.1 mM, cysteine hydrochloride 0.25 g/L, hemin 10 mg/L, menadione 1 mg/L, MOPS 6.3 g/L, pH 7; Base medium 2 SPOSCR composition: beef extract 1 g/L, yeast extract 2 g/L, bacto soytone 6 g/L, NaCl 4 g/L, KH2PO4 5.44 g/L, MgSO4 2 mM, CaCl2) 1 mM, MnCl2 0.1 mM, cysteine hydrochloride 0.25 g/L, hemin 10 mg/L, menadione 1 mg/L, MOPS 8.4 g/L, NaHCO3 0.4%, pH 7; Base medium 3 YCFA: casitone 10 g/L, yeast extract 2.5 g/L, cysteine hydrochloride 1 g/L, hemin 10 mg/L, ATCC vitamin solution 10 mL/L, ATCC trace element solution 10 mL/L, K2HPO4 0.45 g/L, KH2PO4 0.45 g/L, (NH4)2SO4 0.9 g/L, MgSO4×7H2O 90 mg/L, CaCl2) 90 mg/L, acetic acid 33 mM, propionic acid 9 mM, isobutyric acid 1 mM, isovaleric acid 1 mM, valeric acid 1 mM, pH 7).
Positive growth was scored by measuring optical density at 600 nm and comparing it to growth in base medium without an added carbon source. For two, base media acid production was also scored by measuring optical density at 558 nm of pH-indicator phenol red mixed with spent medium from each culture.

[2] = test system: HSDH activity (7-, 3- or 12-hydroxyl groups) on cholic, chenodeoxycholic, deoxycholic and lithocholic acid; experiment: LC-MS screen for hydroxysteroid dehydrogenase (HSDH) activity; type: biochemical; conditions: LC-MS
[3] = test system: 7α-dehydroxylation of cholic acid and chenodeoxycholic acid; experiment: LC-MS screen for 7α-dehydroxylation (7α-OH) activity; type: biochemical; conditions: LC-MS
[4] = SCFA profile of bacterial culture supernatants by GC-MS; conditions: GC-MS; fucose as carbon source
From the text: The same bacterial culture supernatants used for HDAC inhibition assays described supra were submitted to GC-MS analysis to determine which SCFAs underlie the observed inhibition of HDAC. The method employed (MSOmics, Denmark) measures formate, acetate, propionate, butyrate, isobutyrate (2-methyl-propionate), isovalerate (3-methyl-butyrate), valerate (pentanoate), 4-methyl-pentanoate, caproate (hexanoate), and heptanoate. […] Numbers in Table 11 indicate detected SCFA concentration. B=butyrate; P=propionate; IB=isobutyrate, and IV=isovalerate.

[5] = test system: bile salt hydrolase (BSH) activity on conjugated bile acids; experiment: LC-MS screen for bile salt hydrolase (BSH) activity; conditions: for BSH gCA: substrate gCA; for BSH gCDCA: substrate gCDCA; for BSH t-aMCA: substrate t-aMCA; for BSH t-bMCA: substrate t-bMCA; for BSH tCA: substrate tCA; for BSH tCDCA: substrate tCDCA
Protocol: To conduct the assay, briefly, bacteria were grown on permissive agar media plates for 24 to 48 hours to generate sufficient biomass to carry out assays. The bacterial lawns were resuspended in PBS to create a homogenous suspension that was then used for the BSH assay. To assay for BSH activity, bacterial suspensions were incubated with two separate mixtures of four distinct conjugated bile acids, each at concentration of 150 μg/ml, for 4 hours at 37° C. under anaerobic conditions. The reaction mixture was then extracted with an equal volume of acetonitrile, spun down to pellet bacteria and the supernatant filtered through a 0.2 μM filter to generate a sample for LC-MS analysis. Bile acids were determined using an Agilent 1260 HPLC coupled to a Bruker Compact qTOF MS. Samples were run on a bidentate C18 column using an acetonitrile:water buffer system to separate bile acids which were then ionized in negative mode and identified using a qTOF-MS. BSH activity was determined by the formation of deconjugated bile acid products that were verified by comparison to known standards and quantified, if necessary, using standard curves.

[6] = test system: HDAC enzymes (HeLa nuclear extract); experiment: HDAC inhibition activity in supernatants of cultures grown in different carbon sources; conditions: 25% HDAC inhibition as cut off
Protocol: To determine whether the HDAC inhibition was affected by the type and level of carbon source available to a bacterial species, HDAC inhibition by supernatants derived from a selection of bacterial species used in DBCs was determined. In these experiments, bacteria were grown in a variety of carbon sources including mono-, di-, polysaccharides, and porcine mucine. Briefly, 600 μL bacterial cultures in peptone/yeast extract medium (PY) supplemented with 0.5% of the selected carbon sources were inoculated in 96 deep well plates, grown for 4 days, then the microbial cells were pelleted by centrifugation, and 15 μL of the culture medium (supernatant) was used for the HDAC assay with HeLa nuclear extract as described above. Because HDAC activity is reduced at low pH (Latham et al. 2012 Nucl Acid Res 40:4794-803) and the microbial cultures had pH as low as 5, to ensure that the final pH of the assay was not reduced by the addition of supernatant, 10 μL of a 1M Tris pH 8 solution was added per well to bring the final Tris buffer concentration to 75 mM. Thus, assays were performed with 15 μL supernatant, 10 μL 1M Tris pH 8, 25 μL of assay buffer and 50 μL of diluted HeLa nuclear extract, which were preincubated for 30 minutes prior to the addition of developing reagent. Luminescence was measured after 30 minutes.

Substance	utilization of carbon source Citrus pectin [1]	utilization of carbon source NAG [1]	utilization of carbon source cysteine [1]	utilization of carbon source fructose [1]	utilization of carbon source glucose [1]	utilization of carbon source mannose [1]	utilization of carbon source oxalate [1]	utilization of carbon source serine [1]	utilization of carbon source sucrose [1]	utilization of carbon source trehalose [1]	HSDH 3a [2]	HSDH 7a [2]	HSDH 12a [2]	7a Dehydrox CA ([3]; substrate CA)	7a Dehydrox CDCA ([3]; substrate CDCA)	propionate production [4]	BSH gCA [5]	BSH gCDCA [5]	BSH t-aMCA [5]	BSH t-bMCA [5]	also measured
Clostridium disporicum	+	+	w	+	+	+	w	w	+	+	−	+ (‘+’ indicates greater than 50-fold increase in levels of product bile acid, suggesting strong activity)	+/− (‘+/−’ indicates ≤50-fold change in product bile acid levels, suggesting weak activity)	−	−	produced propionate but only when supplied with fucose as a carbon source	−	+/− (‘+/−’ indicates ≤50-fold change in product bile acid levels, suggesting weak activity)	+ (‘+’ indicates greater than 50-fold increase in levels of product bile acid, suggesting strong activity)	+ (‘+’ indicates greater than 50-fold increase in levels of product bile acid, suggesting strong activity)	utilization of carbon source Apple pectin ([1]; Apple pectin): w; utilization of carbon source arbutin ([1]; arbutin): +; utilization of carbon source cellobiose ([1]; cellobiose): +; utilization of carbon source cyclodextrin ([1]; cyclodextrin): +; utilization of carbon source esculin ([1]; esculin): +; utilization of carbon source glutamine ([1]; glutamine): w; utilization of carbon source glycogen ([1]; glycogen): +; utilization of carbon source salicin ([1]; salicin): +; utilization of carbon source starch ([1]; starch): +; utilization of carbon source threonine ([1]; threonine): w; HSDH 3a ([2]; 3a-HSDH): −; HSDH 7a ([2]; 7a-HSDH): + (‘+’ indicates greater than 50-fold increase in levels of product bile acid, suggesting strong activity); HSDH 12a ([2]; 12a-HSDH): −; 7a Dehydrox CDCA ([3]; substrate chenodeoxycholic acid): −; 7a Dehydrox CA ([3]; substrate cholic acid): −; BSH tCA [5]: +/− (‘+/−’ indicates ≤50-fold change in product bile acid levels, suggesting weak activity); BSH tCDCA [5]: + (‘+’ indicates greater than 50-fold increase in levels of product bile acid, suggesting strong activity); HDAC inhibition when alternative nutrient sources are tested [6]: positive
Clostridium bolteae	+	+	w	+	+	+	+	w	+	+	+ (‘+’ indicates greater than 50-fold increase in levels of product bile acid, suggesting strong activity)	−	−	−	−	produced propionate but only when supplied with fucose as a carbon source	+ (‘+’ indicates greater than 50-fold increase in levels of product bile acid, suggesting strong activity)	+ (‘+’ indicates greater than 50-fold increase in levels of product bile acid, suggesting strong activity)	+ (‘+’ indicates greater than 50-fold increase in levels of product bile acid, suggesting strong activity)	+ (‘+’ indicates greater than 50-fold increase in levels of product bile acid, suggesting strong activity)	utilization of carbon source melezitose ([1]; melezitose): +; utilization of carbon source propanediol ([1]; propanediol): +; utilization of carbon source rhamnose ([1]; rhamnose): +; utilization of carbon source ribose ([1]; ribose): +; utilization of carbon source sialic acid ([1]; sialic acid): +; utilization of carbon source tryptophan ([1]; tryptophan): w; utilization of carbon source xylose ([1]; xylose): +; BSH tCA [5]: + (‘+’ indicates greater than 50-fold increase in levels of product bile acid, suggesting strong activity); BSH tCDCA [5]: + (‘+’ indicates greater than 50-fold increase in levels of product bile acid, suggesting strong activity); HDAC inhibition when alternative nutrient sources are tested [6]: positive
